Test results published in US7271239B2, “D-isomers of antimicrobial peptide” (The Research Foundation of State University of New York, priority 2004, dated 2007).
≈ marks a conversion by molar mass, not a printed value. Where “and” joins values, the source holds several entries; their conditions need not be identical. Equal entries are not always repeated. Where two headings read alike, the source gives them in different places. Where a SMILES comes first, the peptide text is derived from it. Where no end group is shown, it is not given here. [ ]: non-standard residue; d: D form.

Assays:
[1] = test system: S. mutans; assay: microbe, parasite or virus in culture
Text: (§1) The bacteria used in this study included Streptococcus mutans ATCC10449, Streptococcus mutans AU 159, Streptococcus mutans GS-5, Streptococcus mutans GS-5 mutant (^gtf BCD), Streptococcus gordonii Challis, Porphyromonas gingivalis W50, Porphyromonas gingivalis 381, A. actinomycetemcomitans NCTC 9710, Pseudomonas aeruginosa ATCC 17648, and Escherichia coli HB101. One quarter strength (25%) of brain heart infusion broth (BHI, DIFCO Laboratories, Detroit, Mich.) was used for the growth of S. mutans, S. gordonii, A. actinomycetemcomitans, Ps. aeruginosa, and E. coli. For growth of P. gingivalis, tryptic soy broth-yeast extract medium (TSBY, DIFCO Laboratories, Detroit, Mich.) supplemented with cysteine hydrochloride (0.05%), menadione (0.02 μg/ml), hemin (5 μg/ml), and potassium nitrate (0.02%) was used. All bacteria were cultured at 37° C.; Ps. aeruginosa and E. coli were grown aerobically, and the other bacteria, anaerobically. To prepare bacterial cell suspension for antibacterial activity assays, each overnight culture was harvested by centrifuge (3783 g, 10 min), washed once with 10 mM sodium phosphate-buffered saline (PBS, pH 7.2), resuspended in PBS and adjusted to a concentration of 1×10^6 cells/mL.
(§2) MICs of the peptides were determined by broth microdilution method as previously described (5). Briefly, two-fold serial dilutions of each peptide were prepared with 25% BHI medium at a volume of 200 μl per well in 96-well flat-bottom microtiter plates (Costar, Cambridge, Mass.). The final concentration of the peptides ranged from 0.78 to 100 μM, and chlorhexidine (CHX), used as a positive control, from 20 to 0.16 μM (10 to 0.078 μg/mL). The microtiter plate was inoculated with bacterial cell suspension with final concentration of 5×10^6 CFU/mL for P. gingivalis and 5×10^5 CFU/mL for the other bacterial species. After incubation at 37° C. for 48 h, the absorbance was measured at 595 nm by using a microplate reader (Model 3550, Bio-Rad, Japan) to assess the cell growth. […] The MIC value represents the median of at least three independent experiments. The minimal bactericidal concentration (MBC) was determined as follows. Aliquot (100 μl) of cell suspension was taken from two wells above MIC, centrifuged, and washed three times with PBS. Then each cell suspension was plated on TSBY agar plate, and bacterial cells were enumerated after incubation at 37° C. for 48 h. The MBC was defined as the lowest concentration of the peptide at which more than 99.9% of cells were killed compared to non-treated control.

[2] = test system: S. gordonii Challis; assay: microbe, parasite or virus in culture; type: cell-based, Streptococcus gordonii; details: for MBC / MIC: Streptococcus gordonii
Text: as §1, §2

[3] = test system: E. coli HB101; assay: microbe, parasite or virus in culture; type: cell-based, Escherichia coli; details: for MBC / MIC: Escherichia coli, HB101
Text: as §1, §2

[4] = Stability of peptides in saliva (SDS-PAGE); type: in vitro ADME, human
Protocol: FIGS. 3A and 3B. Stability of antimicrobial peptides in (3A) Trypsin and (3B) unclarified saliva. Each peptide (3 μg in 5 μl of 0.5 M Tris-HCl buffer pH 7.5) was incubated with: 0.2 μg/ml trypsin containing PIC or no PIC for 0.5 h; or saliva (10 μl) for 1 h. The control of each compound was also incubated with Tris-HCl buffer in parallel. The samples were analyzed by 13% SDS-PAGE. The gel was stained with Coomassie brilliant blue and further analyzed for the peptide degradation by GS-700 Imaging Densitometer. The degradation was estimated by the equation: 1−(density of test band/density of control band)×100%. Ctrol: each peptide alone; T: trypsin plus peptide; T+PIC: trypsin containing PIC plus peptide; S: saliva plus peptide; S+PIC: saliva containing PIC plus peptide.
Stability of peptides in saliva and susceptibility of septides to trypsin. Three microliters of each peptide (MUC7 12-mer-D, MUC7 12-mer-L, Hsn5 12-mer, or Magainin-II, at 1 μg/μl in 0.2 M Tris-HCl buffer pH 7.5) were incubated with 11 μl of 0.2 μg/ml trypsin or saliva. This gave a final concentration of 0.16 μg/ml for trypsin, and 0.2 μg/μl for peptides (or 127, 127, 128, and 81 μM, for MUC7 12-mer-D, MUC7 12-mer-L, Hsn5 12-mer, or Magainin II, respectively). The reactions, without PIC (water instead or PIC) or with 1×PIC [50% (v/v)] were incubated 0.5 h with trypsin, and 1 hr with saliva (clarified or unclarified) at 37° C. The control of each compound was also incubated with Tris-HCl buffer in parallel. The samples were analyzed by 13% SDS-PAGE. Gels was stained with Coomassie brilliant blue R-250 and further analyzed for the peptide degradation by GS-700 Imaging Densitometer (Bio Red). The degradation was estimated by the equation: 1−(density of test band/density of control band)×100%.

[5] = median of four strains (GS-5, GS-5 gtfBCD, AU 159, ATCC10449), 25% BHI, 48 h

Compound | degradation by saliva [4] | MBC (μM) ([1]; median of four strains) | MIC [1, 5] | MBC (μM) [2] | MIC (μM) [2] | MBC (μM) [3] | MIC (μM) [3] | MBC (μg/ml) [2] | MIC (μg/ml) [2] | further results
[H]/N=C(\N/C(=N/[H])NCCCCCCNC(=N)NC(=N)Nc1ccc(Cl)cc1)Nc1ccc(Cl)cc1 [Chlorhexidine, Chlorhexidine digluconate] |  |  |  |  |  |  |  |  |  | MBC ([1]; Streptococcus mutans): 2.5 µM and 1.2 µg/mL; MIC ([1]; Streptococcus mutans): 1.2 µg/mL; MIC ([1]; Streptococcus mutans, ATCC10449, 48 h): 2.5 µM; MBC ([2]; read-out: MBC): 4 µM; MBC ([2]; read-out: MBC (μg/ml)): 2 µg/mL; MIC ([2]; read-out: MIC): 2.5 µM; MIC ([2]; read-out: MIC (μg/ml)): 1.2 µg/mL; MBC ([3]; read-out: MBC): 2.5 µM; MBC ([3]; read-out: MBC (μg/ml)): 1.3 µg/mL; MIC ([3]; read-out: MIC): 2.5 µM; MIC ([3]; read-out: MIC (μg/ml)): 1.3 µg/mL
CC(C)C[C@@H](NC(=O)[C@@H](CS)NC(=O)[C@@H](CCCCN)NC(=O)[C@@H](Cc1ccc(O)cc1)NC(=O)[C@@H](CO)NC(=O)[C@@H](CCCCN)NC(=O)[C@H](N)CCCNC(=N)N)C(=O)N[C@H](Cc1c[nH]cn1)C(=O)N[C@H](CCCCN)C(=O)N[C@H](CCCNC(=N)N)C(=O)N[C@H](CS)C(=O)N[C@H](CCCNC(=N)N)C(=O)O [MUC7 12-mer-D] (H-[dR][dK][dS][dY][dK][dC][dL][dH][dK][dR][dC][dR]-OH; N-terminus and C-terminus assumed) | resistant to the degradation | 12.5 µM (≈ 19.7 µg/mL) | 12.5 µM | 100.0 µM (≈ 158 µg/mL) | 50.0 µM (≈ 78.9 µg/mL) | 12.5 µM (≈ 19.7 µg/mL) | 12.5 µM (≈ 19.7 µg/mL) |  |  | 
CC(C)C[C@H](NC(=O)[C@H](CS)NC(=O)[C@H](CCCCN)NC(=O)[C@H](Cc1ccc(O)cc1)NC(=O)[C@H](CO)NC(=O)[C@H](CCCCN)NC(=O)[C@@H](N)CCCNC(=N)N)C(=O)N[C@@H](Cc1c[nH]cn1)C(=O)N[C@@H](CCCCN)C(=O)N[C@@H](CCCNC(=N)N)C(=O)N[C@@H](CS)C(=O)N[C@@H](CCCNC(=N)N)C(=O)O [MUC7 12-mer-L] (H-RKSYKCLHKRCR-OH; N-terminus and C-terminus assumed) | degraded | 12.5 µM (≈ 19.7 µg/mL) | 12.5 µM | 100.0 µM (≈ 158 µg/mL) | 50.0 µM (≈ 78.9 µg/mL) | 25.0 µM (≈ 39.4 µg/mL) | 25.0 µM (≈ 39.4 µg/mL) |  |  | 
AKRHHGYKRKFH [Hsn5 12-mer] | degraded | 50.0 µM | 25 µM | >100 µM | >100 µM | 100.0 µM | 100.0 µM | >158 µg/mL | >158 µg/mL | 
GIGKFLHSAKKFGKAFVGEIMNS [Magainin-II] |  | 50.0 µM | 25 µM | >50 µM | 50.0 µM | 12.5 µM | 12.5 µM | >123 µg/mL | 123.5 µg/mL | degradation by saliva ([4]; unclarified saliva, 1 h, 37° C., SDS-PAGE): degraded; MIC ([1]; median of four strains): 61.7 µg/mL; MBC (μg/ml) [3]: 30.9 µg/mL; MIC (μg/ml) [3]: 30.9 µg/mL
